Source: patent US20050227994A1, “Decomposition inhibitor for extracellular matrix of cartilage” (Shionogi & Co., Ltd., priority 2002, published 2005)
pIC50: −log10 of the molar value. Read-outs that look alike come from different tables or passages of the source.

Molecular target: T1, MMP-13 (Homo sapiens, UniProt P45452)
T1 construct: catalytic domain (^104Tyr˜^267Gly) was amplified with RT-PCR; His-tag; enterokinase digestion-site; made in house
Assay: Assay for inhibitory activities on MMP-13
Type: biochemical
Protocol: In regard to MMP-13, mRNA was prepared from carcinoma cell SW1353 derived from human cartilage stimulate by IL-1, TNF and catalytic domain (^[…]) was amplified with RT-PCR. This was cloned in Escherichia. coli expression vector […] inserted with His-tag sequence and enterokinase digestion-site, induced and expressed by IPTG (Isopropyl-β-D-thiogalactopyranoside) and expressed in a insoluble fraction. Isolation of MMP-13 from an insoluble fraction was carried out by dissolving in modifier (6M urea) by a usual method and purification with metal chelate chromatography (Ni […] Sepharose). […] The enzymatic activity on MMP was analyzed by the method described in “C. Graham Knight, Frances Willenbrock and Gillian Murphy: A novel coumarin-labelled peptide for sensitive continuous assays of the matrix metalloproteinases: […] The substrate: MOCAc-[…] was purchased from Peptide Institute, Inc., Osaka, Japan.

[1] = catalytic domain, substrate MOCAc-Pro-Leu-Gly-Leu-A2Pr(DNP)-Ala-Arg-NH2, read-out: MMP-13 (IC50μM)

| Structure (SMILES) | pIC50 [1] | pIC50 |
| --- | --- | --- |
| O=C(O)[C@@H](Cc1c[nH]c2ccccc12)NS(=O)(=O)c1ccc(-c2ccc(F)cc2)cc1 [Compound E-27] | 7.44 | – |
| C[C@@H](NS(=O)(=O)c1ccc(-c2ccc(-c3ccc4ccccc4c3)cc2)cc1)C(=O)O [Compound E-28] | 7.92 | – |
| O=C(O)[C@@H](Cc1ccccc1)NS(=O)(=O)c1ccc(-c2ccc(C#Cc3ccc4ccccc4c3)cc2)cc1 [Compound E-29] | – | 8.00 |
| CSc1ccc(-c2ccc(S(=O)(=O)NC(Cc3ccccc3)C(=O)O)cc2)cc1 (stereo not shown) [Compound E-30] | 8.59 | – |
| COc1ccc(-c2ccc(S(=O)(=O)NC(C(=O)O)C(C)C)s2)cc1 (stereo not shown) [Compound F-2] | 6.28 | – |
| CSCC[C@@H](NS(=O)(=O)c1ccc(-c2ccc(SC)cc2)s1)C(=O)O [Compound F-3] | 8.15 | – |
| CSc1ccc(-c2ccc(S(=O)(=O)NC(CC(C)C)C(=O)O)s2)cc1 (stereo not shown) [Compound F-4] | 8.03 | – |
| CCOc1ccc(-c2ccc(S(=O)(=O)NC(CC(C)C)C(=O)O)s2)cc1 (stereo not shown) [Compound F-5] | 7.74 | – |
| COc1ccc(-c2ccc(S(=O)(=O)N[C@H](CCSC)C(=O)O)s2)cc1 [Compound F-6] | 7.42 | – |
| O=C(O)[C@H](Cc1c[nH]c2ccccc12)NS(=O)(=O)c1ccc(-c2ccc(N3CCCC3)cc2)s1 [Compound F-7] | 7.37 | – |
| COc1ccc(-c2ccc(S(=O)(=O)N[C@H](Cc3c[nH]c4ccccc34)C(=O)O)s2)cc1 [Compound F-9] | 8.44 | – |
| Cc1ccc(-c2ccc(S(=O)(=O)N[C@H](Cc3c[nH]c4ccccc34)C(=O)O)s2)cc1 [Compound F-10] | 6.68 | – |
| CN(C)c1ccc(-c2ccc(S(=O)(=O)N[C@H](Cc3c[nH]c4ccccc34)C(=O)O)s2)cc1 [Compound F-11] | 9.33 | – |
| CNc1ccc(-c2ccc(S(=O)(=O)N[C@H](Cc3ccccc3)C(=O)O)s2)cc1 [Compound F-12] | 7.50 | – |
| O=C(O)CNS(=O)(=O)c1ccc(-c2ccc(N3CCCC3)cc2)s1 [Compound F-13] | 7.48 | – |
| O=C(O)[C@@H](Cc1ccccc1)NS(=O)(=O)c1ccc(-c2ccc(-n3cccc3)cc2)s1 [Compound F-14] | 7.98 | – |
| C[C@@H](NS(=O)(=O)c1ccc(-c2ccc(-n3cccc3)cc2)s1)C(=O)O [Compound F-15] | 7.64 | – |
| CC(C)C[C@@H](NS(=O)(=O)c1ccc(-c2ccc(N3CCCCC3)cc2)s1)C(=O)O [Compound F-16] | 6.60 | – |

| Structure (SMILES) | pIC50 [1] | pIC50 |
| --- | --- | --- |
| O=C(O)[C@H](NS(=O)(=O)c1ccc(-c2ccc(N3CCCC3)cc2)s1)c1ccc(O)cc1 [Compound F-17] | 8.43 | – |
| CC(C)[C@H](NS(=O)(=O)c1ccc(-c2ccc(N3CCCC3)cc2)s1)C(=O)O [Compound F-18] | 7.49 | – |
| Cc1ccc(-c2ccc(S(=O)(=O)N[C@@H](Cc3c[nH]c4ccccc34)C(=O)O)s2)cc1 [Compound F-19] | 6.20 | – |
| Cc1ccc(-c2ccc(S(=O)(=O)NC(C(=O)O)C(C)C)s2)cc1 (stereo not shown) [Compound F-20] | 6.09 | – |
| CNc1ccc(-c2ccc(S(=O)(=O)NC(C(=O)O)C(C)C)s2)cc1 (stereo not shown) [Compound F-21] | 5.90 | – |
| CNc1ccc(-c2ccc(S(=O)(=O)N[C@@H](Cc3ccccc3)C(=O)O)s2)cc1 [Compound F-22] | 6.07 | – |
| CSc1ccc(-c2ccc(S(=O)(=O)NC(Cc3ccccc3)C(=O)O)s2)cc1 (stereo not shown) [Compound F-24] | 7.08 | – |
| CSCC[C@H](NS(=O)(=O)c1ccc(-c2ccc(C(C)=O)cc2)s1)C(=O)O [Compound F-25] | 6.97 | – |
| C=Cc1ccc(-c2ccc(S(=O)(=O)N[C@@H](C(=O)O)C(C)C)s2)cc1 [Compound F-26] | 8.00 | – |
| CC(=O)Oc1ccc(C#Cc2ccc(S(=O)(=O)N[C@H](Cc3c[nH]c4ccccc34)C(=O)O)cc2)cc1 [Compound G-1] | 7.34 | – |
| C#Cc1ccc(C#Cc2ccc(S(=O)(=O)N[C@H](Cc3c[nH]c4ccccc34)C(=O)O)cc2)cc1 [Compound G-2] | 7.82 | – |
| CC(C)[C@@H](NS(=O)(=O)c1ccc(C#Cc2ccc(O)cc2)cc1)C(=O)O [Compound G-3] | < 5.00 | – |
| Cc1ccc(C#Cc2ccc(S(=O)(=O)N[C@H](Cc3ccccc3)C(=O)O)cc2[N+](=O)[O-])cc1 [Compound G-4] | < 5.00 | – |
| O=C(O)[C@@H](Cc1ccccc1)NS(=O)(=O)c1ccc(C#Cc2ccc3ccccc3c2)cc1 [Compound G-5] | < 5.00 | – |
| O=C(O)[C@H](Cc1c[nH]c2ccccc12)NS(=O)(=O)c1ccc(C#Cc2ccc3ccccc3c2)cc1 [Compound G-6] | 6.05 | – |
| O=C(O)[C@H](Cc1ccccc1)NS(=O)(=O)c1ccc(C#Cc2ccc3c(c2)OCO3)cc1 [Compound G-9] | 7.44 | – |
| O=C(O)[C@H](CO)NS(=O)(=O)c1ccc(C#Cc2ccc3c(c2)OCO3)cc1 [Compound G-12] | 6.83 | – |
| CC(C)C[C@@H](NS(=O)(=O)c1ccc(C#Cc2ccc3[nH]c(=O)sc3c2)cc1)C(=O)O [Compound G-15] | 5.96 | – |

Now from value to compound, other results behind:

| pIC50 [1] | Structure (SMILES) | pIC50 |
| --- | --- | --- |
| 7.36 | O=C(O)[C@@H](Cc1ccccc1)NS(=O)(=O)c1ccc(C#Cc2ccc3c(c2)OCO3)s1 [Compound H-1] | – |
| < 5.00 | O=C(O)[C@@H](Cc1ccccc1)NS(=O)(=O)c1ccc(C#Cc2ccc3ccccc3c2)s1 [Compound H-2] | – |
| 5.22 | O=C(O)c1ccc(C#Cc2ccc(S(=O)(=O)N[C@H](Cc3ccccc3)C(=O)O)s2)cc1 [Compound H-3] | – |
| 7.48 | Cc1ccc(C#Cc2ccc(S(=O)(=O)N[C@H](Cc3c[nH]c4cccc(O)c34)C(=O)O)s2)cc1 [Compound H-5] | – |
| 7.95 | Cc1ccc(C#Cc2ccc(S(=O)(=O)N[C@H](Cc3c[nH]c4c(O)cccc34)C(=O)O)s2)cc1 [Compound H-6] | – |
| < 5.00 | O=C(O)[C@@H](Cc1ccccc1)NS(=O)(=O)c1ccc(C#Cc2cccc3ccccc23)s1 [Compound H-7] | – |
| 6.82 | Cc1ccc(C#Cc2ccc(S(=O)(=O)N[C@H](CCC(=O)O)C(=O)O)s2)cc1 [Compound H-8] | – |
| < 5.00 | O=C(O)[C@H](Cc1ccccc1)NS(=O)(=O)c1ccc(C#Cc2ccc3ccccc3c2)s1 [Compound H-9] | – |
| 5.86 | CC(C)C[C@@H](NS(=O)(=O)c1ccc(C#Cc2ccc3ccccc3c2)s1)C(=O)O [Compound H-10] | – |
| 6.24 | C[C@@H](NS(=O)(=O)c1ccc(C#Cc2ccc(F)c(F)c2)s1)C(=O)O [Compound H-11] | – |
| 6.82 | COc1ccc2cc(C#Cc3ccc(S(=O)(=O)N[C@H](Cc4ccccc4)C(=O)O)s3)ccc2c1 [Compound H-12] | – |
| 7.22 | Cc1ccc(C#Cc2ccc(S(=O)(=O)N[C@H](Cc3ccccc3)C(=O)O)s2)cc1F [Compound H-13] | – |
| 6.82 | O=C(O)[C@@H](Cc1ccccc1)NS(=O)(=O)c1ccc(C#CC2=CCCCC2)s1 [Compound H-14] | – |
| 7.44 | O=C(O)[C@@H](Cc1ccccc1)NS(=O)(=O)c1ccc(-c2nnn(-c3ccc(Br)cc3)n2)cc1 [Compound I-1] | – |
| 8.00 | CC(=O)NCCc1ccc(-n2nnc(-c3ccc(S(=O)(=O)N[C@H](Cc4ccccc4)C(=O)O)cc3)n2)cc1 [Compound I-2] | – |
| 7.54 | NCCc1ccc(-n2nnc(-c3ccc(S(=O)(=O)N[C@H](Cc4ccccc4)C(=O)O)cc3)n2)cc1 [Compound I-3] | – |
| 8.09 | CS(=O)(=O)OCCc1ccc(-n2nnc(-c3ccc(S(=O)(=O)N[C@H](Cc4ccccc4)C(=O)O)cc3)n2)cc1 [Compound I-4] | – |

| pIC50 [1] | Structure (SMILES) | pIC50 |
| --- | --- | --- |
| 7.75 | CCCCc1ccc(-n2nnc(-c3ccc(S(=O)(=O)N[C@H](Cc4ccccc4)C(=O)O)cc3)n2)cc1 [Compound I-5] | – |
| 7.31 | CSc1ccc(-c2nnn(-c3ccc(S(=O)(=O)N[C@H](Cc4ccccc4)C(=O)O)cc3)n2)cc1 [Compound J-1] | – |
| < 5.00 | O=C(O)[C@H](Cc1ccccc1)NS(=O)(=O)c1ccc(-n2nnc(-c3ccc4ccccc4c3)n2)cc1 [Compound J-3] | – |
| 7.69 | CSc1ccc(-c2ccc(S(=O)(=O)NC(C(=O)O)C(C)C)cc2)s1 (stereo not shown) [Compound K-1] | – |
| 7.94 | CCCCc1ccc(-c2ccc(-c3ccc(S(=O)(=O)N[C@@H](C(=O)O)C(C)C)cc3)s2)cc1 [Compound K-2] | – |
| 7.02 | Cc1ccc(-c2ccc(-c3ccc(S(=O)(=O)N[C@H](C)C(=O)O)cc3)s2)cc1 [Compound K-3] | – |
| 7.03 | CSCC[C@@H](NS(=O)(=O)c1ccc(-c2ccc(-c3ccc(C)cc3)s2)cc1)C(=O)O [Compound K-4] | – |
| 8.28 | CSc1ccc(-c2ccc(-c3ccc(S(=O)(=O)N[C@@H](C(=O)O)C(C)C)cc3)s2)cc1 [Compound K-5] | – |
| 6.65 | Cc1ccc(-c2ccc(-c3ccc(S(=O)(=O)N[C@H](CC(C)C)C(=O)O)cc3)s2)cc1 [Compound K-6] | – |
| 7.51 | Cc1ccc(-c2ccc(-c3ccc(S(=O)(=O)N[C@@H](C(=O)O)C(C)C)s3)s2)cc1 [Compound L-1] | – |
| 7.83 | CSc1ccc(-c2ccc(-c3ccc(S(=O)(=O)N[C@@H](C(=O)O)C(C)C)s3)s2)cc1 [Compound L-2] | – |
| 6.96 | Cc1ccc(-c2ccc(-c3ccc(S(=O)(=O)N[C@H](Cc4ccccc4)C(=O)O)s3)s2)cc1 [Compound L-3] | – |
| 6.55 | Cc1ccc(-c2ccc(-c3ccc(S(=O)(=O)NCC(=O)O)s3)s2)cc1 [Compound L-4] | – |
| 6.87 | Cc1ccc(-c2ccc(-c3ccc(S(=O)(=O)N[C@H](C(=O)O)C(C)C)s3)s2)cc1 [Compound L-5] | – |
| < 5.00 | COc1ccc2cc(-c3nc(-c4ccc(S(=O)(=O)N[C@H](C)C(=O)O)cc4)cs3)ccc2c1 [Compound M-2] | – |
| 7.15 | O=C(O)[C@@H](Cc1ccccc1)NS(=O)(=O)c1ccc(-c2ccc3ccccc3c2)s1 [Compound N-4] | – |
| 6.94 | O=C(O)[C@@H](Cc1ccccc1)NS(=O)(=O)c1ccc(-c2ncc(-c3ccccc3)s2)s1 [Compound N-7] | – |
